Values of other authors as cited in patent US20180271760A1, “Skin Care Compositions” (priority 2017, published 2018).
Values after ≈ are worked out from the molar mass of the structure shown.

How the values were obtained:
[1] = in 4 weeks

SMILES: O=C(O)CCCCCCCC(=O)O [Azelaic acid]
- solubility in glycerol and glycols (glycerol and glycols): soluble
- solubility in water (water, solubility is pH dependent): 2100 µg/mL (≈ 11.2 mM)

SMILES: NC(=O)c1cccnc1 [niacinamide]
- reduction of TEWL [1]: 24%
